Data published in PubChem BioAssay (NCI).
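Five compound concentrations were applied to cells in 96-well plates for 48 hours; endpoints were derived by simple linear interpolation of the resulting dose-response curve. TGI is the concentration that stops growth completely.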

Legend:
Assay in all cases: NCI-60 cell line screen, 48 h
SK-OV-3 ovarian = system: SK-OV-3 ovarian
MALME-3M melanoma = system: MALME-3M melanoma
NCI-H522 lung = system: NCI-H522 lung
M14 melanoma = system: M14 melanoma
MDA-MB-435 = system: MDA-MB-435
HOP-62 NSCLC = system: HOP-62 NSCLC
T-47D breast = system: T-47D breast
HCT-116 colon = system: HCT-116 colon
DU-145 prostate = system: DU-145 prostate
SF-295 CNS = system: SF-295 CNS
ACHN renal = system: ACHN renal
MDA-MB-231 breast = system: MDA-MB-231 breast
SN12C renal = system: SN12C renal
MDA-N = system: MDA-N
TK-10 renal = system: TK-10 renal
OVCAR-3 ovarian = system: OVCAR-3 ovarian
786-0 renal = system: 786-0 renal
OVCAR-5 ovarian = system: OVCAR-5 ovarian
KM12 colon = system: KM12 colon
NCI-H226 lung = system: NCI-H226 lung
CAKI-1 renal = system: CAKI-1 renal
OVCAR-8 ovarian = system: OVCAR-8 ovarian
HT29 colon = system: HT29 colon
HCC-2998 colon = system: HCC-2998 colon
SF-539 CNS = system: SF-539 CNS
PC-3 prostate = system: PC-3 prostate
HL-60(TB) leukemia = system: HL-60(TB) leukemia
NCI-H460 lung = system: NCI-H460 lung
A549 NSCLC = system: A549 NSCLC
SNB-75 CNS = system: SNB-75 CNS
SW-620 colon = system: SW-620 colon
MOLT-4 leukemia = system: MOLT-4 leukemia
SK-MEL-5 melanoma = system: SK-MEL-5 melanoma
SK-MEL-2 melanoma = system: SK-MEL-2 melanoma
SNB-19 CNS = system: SNB-19 CNS
SK-MEL-28 melanoma = system: SK-MEL-28 melanoma
CCRF-CEM leukemia = system: CCRF-CEM leukemia
COLO 205 colon = system: COLO 205 colon
U251 CNS = system: U251 CNS
SF-268 CNS = system: SF-268 CNS
UACC-62 melanoma = system: UACC-62 melanoma
UACC-257 melanoma = system: UACC-257 melanoma
MCF7 breast = system: MCF7 breast
NCI/ADR-RES ovarian = system: NCI/ADR-RES ovarian
IGROV1 ovarian = system: IGROV1 ovarian
NCI-H23 lung = system: NCI-H23 lung
UO-31 renal = system: UO-31 renal
SR leukemia = system: SR leukemia
K-562 leukemia = system: K-562 leukemia
HS 578T breast = system: HS 578T breast
HCT-15 colon = system: HCT-15 colon
A498 renal = system: A498 renal
BT-549 breast = system: BT-549 breast
RPMI-8226 leukemia = system: RPMI-8226 leukemia
OVCAR-4 ovarian = system: OVCAR-4 ovarian
EKVX NSCLC = system: EKVX NSCLC
RXF 393 renal = system: RXF 393 renal
LOX IMVI melanoma = system: LOX IMVI melanoma

Measured: TGI

COc1ccc(-c2coc3cc(O)ccc3c2=O)cc1
not listed: BT-549 breast | RPMI-8226 leukemia | OVCAR-4 ovarian | EKVX NSCLC | RXF 393 renal | LOX IMVI melanoma
> 100 µM: all other assays above

CN(c1ccccc1)S(=O)(=O)c1ccc([N+](=O)[O-])cc1
not listed: SK-OV-3 ovarian | HCC-2998 colon | SNB-75 CNS | MOLT-4 leukemia | SK-MEL-5 melanoma | CCRF-CEM leukemia | UACC-62 melanoma | IGROV1 ovarian | K-562 leukemia | HS 578T breast | A498 renal
> 100 µM: all other assays above
